This note sets out measurements from patent US20230227453A1 (priority 2020, published 2023).

Experiment [1] deals with T1, 5-HT2C edited (accession number AAF35842.1) (Homo sapiens, UniProt P28335, I156V/I160V/N158S). Put plainly: biochemical. The class given is binding.
Target sequence in this assay (P28335 whole entry I156V/N158S/I160V, looked up): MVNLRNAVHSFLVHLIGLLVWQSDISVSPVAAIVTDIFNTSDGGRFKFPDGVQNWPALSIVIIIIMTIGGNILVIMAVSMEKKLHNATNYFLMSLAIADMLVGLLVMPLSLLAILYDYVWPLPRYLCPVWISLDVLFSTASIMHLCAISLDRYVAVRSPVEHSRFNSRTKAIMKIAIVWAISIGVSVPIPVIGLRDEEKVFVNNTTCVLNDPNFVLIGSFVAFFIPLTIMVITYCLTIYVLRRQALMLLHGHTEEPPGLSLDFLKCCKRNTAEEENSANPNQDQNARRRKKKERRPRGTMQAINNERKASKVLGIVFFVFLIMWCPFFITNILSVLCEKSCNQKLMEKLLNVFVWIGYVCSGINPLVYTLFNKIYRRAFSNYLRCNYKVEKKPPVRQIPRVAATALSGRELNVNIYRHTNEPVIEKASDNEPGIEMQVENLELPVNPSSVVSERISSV
For experiment [2], the target named is T1, 5-HT2C edited (accession number AAF35842.1). The experiment can be described thus: cell-based.
Target sequence in this assay (P28335 33-458 I156V/N158S/I160V limits assumed): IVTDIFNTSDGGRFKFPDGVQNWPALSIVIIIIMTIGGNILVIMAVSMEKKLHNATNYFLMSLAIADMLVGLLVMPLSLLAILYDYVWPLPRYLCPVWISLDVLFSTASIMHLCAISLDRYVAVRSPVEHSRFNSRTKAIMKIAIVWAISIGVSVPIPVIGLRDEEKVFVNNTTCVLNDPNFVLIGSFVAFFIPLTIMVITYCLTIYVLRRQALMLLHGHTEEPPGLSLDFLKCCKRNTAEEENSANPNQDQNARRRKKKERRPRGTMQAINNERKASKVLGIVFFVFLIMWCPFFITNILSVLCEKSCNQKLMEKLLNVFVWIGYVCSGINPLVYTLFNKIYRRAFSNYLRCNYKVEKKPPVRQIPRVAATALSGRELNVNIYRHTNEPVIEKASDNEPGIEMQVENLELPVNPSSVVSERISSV

In general, IC50 refers to the midpoint of a concentration-inhibition curve. A lower IC50 goes with greater potency. By EC50 is commonly meant the concentration at which the effect is half-maximal. Lower therefore signals higher potency in that assay.

`COc1ccc2c3c([nH]c2n1)CCN(C)CC3` [Example 1, 2-methoxy-7-methyl-5,6,7,8,9,10-hexahydropyrido[3′,2′:4,5]pyrrolo[2,3-d]azepine]: the IC50 in experiment [1] lay within 1000 to 10000 nM. Further, the EC50 in experiment [2] was 101 to 1000 nM.
For `COc1ccc2c3c([nH]c2n1)CCNCC3` [Example 2, 2-methoxy-5,6,7,8,9,10-hexahydropyrido[3′,2′:4,5]pyrrolo[2,3-d]azepine], the concentration for half-maximal inhibition (IC50) in experiment [1] lay within 101 to 1000 nM. Further, the EC50 in experiment [2] is 10 to 100 nM.
On to `COc1ccc2c3c(n(C)c2n1)CCN(C)CC3` [Example 3, 2-methoxy-7,10-dimethyl-5,6,7,8,9,10-hexahydropyrido[3′,2′:4,5]pyrrolo[2,3-d]azepine], for which the IC50 in experiment [1] was in the range of 101 to 1000 nM. In experiment [2], this compound registered an EC50 of 101 to 1000 nM.
Take `COc1ccc2c3c([nH]c2n1)CCN(C1COC1)CC3` [Example 4, 2-methoxy-7-(oxetan-3-yl)-5,6,7,8,9,10 hexahydropyrido[3′,2′:4,5]pyrrolo[2,3-d]azepine]: the IC50 in experiment [1] is more than 10000 nM. Besides, in experiment [2], the EC50 was more than 10000 nM.
Compound `COc1ccc2c3c(n(C)c2n1)CCNCC3` [Example 5, 2-methoxy-10-methyl-5,6,7,8,9,10-hexahydropyrido[3′,2′:4,5]pyrrolo[2,3-d]azepine] returned an IC50 in experiment [1] of 10 to 100 nM. The EC50 in experiment [2] lay within 10 to 100 nM.
In experiment [1], `COc1ccc2c3c(n(C)c2n1)CCN(C1COC1)CC3` [Example 6, 2-methoxy-10-methyl-7-(oxetan-3-yl)-5,6,7,8,9,10-hexahydropyrido[3′,2′:4,5]pyrrolo[2,3-d]azepine] gave an IC50 of 1000 to 10000 nM. The compound further showed an EC50 in experiment [2] of 101 to 1000 nM.
For `Cc1ccc2c3c([nH]c2n1)CCN(C)CC3` [Example 7, 2,7-dimethyl-5,6,7,8,9,10-hexahydropyrido[3′,2′:4,5]pyrrolo[2,3-d]azepine] the same measures were 101 to 1000 nM and 101 to 1000 nM.
Compound `Cc1ccc2c3c([nH]c2n1)CCNCC3` [Example 8, 2-methyl-5,6,7,8,9,10-hexahydropyrido[3′,2′:4,5]pyrrolo[2,3-d]azepine] gave an IC50 in experiment [1] of 101 to 1000 nM. Also, the 50% effective concentration (EC50) in experiment [2] lay in the range of 10 to 100 nM.
`Cc1ccc2c3c([nH]c2n1)CCN(C1COC1)CC3` [Example 9, 2-methyl-7-(oxetan-3-yl)-5,6,7,8,9,10-hexahydropyrido[3′,2′:4,5]pyrrolo[2,3-d]azepine]: the IC50 in experiment [1] was more than 10000 nM. Moreover, the 50% effective concentration (EC50) in experiment [2] is more than 10000 nM.
Turning to `Cc1ccc2c3c(n(C)c2n1)CCNCC3` [Example 10, 2,10-dimethyl-5,6,7,8,9,10-hexahydropyrido[3′,2′:4,5]pyrrolo[2,3-d]azepine], the half-maximal inhibitory concentration (IC50) in experiment [1] lay within 101 to 1000 nM. In addition, in experiment [2], the EC50 was 10 to 100 nM.
For `Cc1ccc2c3c(n(C)c2n1)CCN(C1COC1)CC3` [Example 11, 2,10-dimethyl-7-(oxetan-3-yl)-5,6,7,8,9,10-hexahydropyrido[3′,2′:4,5]pyrrolo[2,3-d]azepine] the same measures were 1000 to 10000 nM and more than 10000 nM.
`Cc1ccc2c3c(n(C)c2n1)CCN(C)CC3` [Example 12, 2,7,10-trimethyl-5,6,7,8,9,10-hexahydropyrido[3′,2′:4,5]pyrrolo[2,3-d]azepine] returned an IC50 in experiment [1] of 101 to 1000 nM. In addition, in experiment [2], the concentration giving a half-maximal response (EC50) was 101 to 1000 nM.
Compound `Clc1cnc2[nH]c3c(c2c1)CCNCC3` [Example 13, 3-chloro-5,6,7,8,9,10-hexahydropyrido[3′,2′:4,5]pyrrolo[2,3-d] azepine] displayed an IC50 in experiment [1] of 10 to 100 nM. In addition, in experiment [2], the EC50 is less than 10 nM.
The like results for `COc1cc2c3c([nH]c2cn1)CCN(C)CC3` [Example 14, 3-methoxy-7-methyl-5,6,7,8,9,10-hexahydropyrido[4′,3′:4,5]pyrrolo[2,3-d]azepine] were, in that order, more than 10000 nM and more than 10000 nM.
The like results for `COc1ccc2[nH]c3c(c2n1)CCN(C)CC3` [Example 15, 2-methoxy-8-methyl-5,6,7,8,9,10-hexahydropyrido[2′,3′:4,5]pyrrolo[2,3-d]azepine] were, in that order, 10 to 100 nM and 10 to 100 nM.
Compound `Brc1ccc2c3c([nH]c2n1)CCNCC3` [Example 16, 2-bromo-5,6,7,8,9,10-hexahydropyrido[3′,2′:4,5]pyrrolo[2,3-d]azepine] displayed an IC50 in experiment [1] of 10 to 100 nM. The compound also had an EC50 in experiment [2] of less than 10 nM.
Turning to `c1cnc2[nH]c3c(c2c1)CCNCC3` [Example 17, 5,6,7,8,9,10-hexahydropyrido[3′,2′:4,5] pyrrolo[2,3-d] azepine], the IC50 in experiment [1] was in the range of 10 to 100 nM. In experiment [2], the EC50 was less than 10 nM.
`Cn1c2c(c3cccnc31)CCNCC2` [Example 18, 10-methyl-5,6,7,8,9,10-hexahydropyrido[3′,2′:4,5]pyrrolo[2,3-d]azepine] registered an IC50 in experiment [1] of 10 to 100 nM. This compound also came in with an EC50 in experiment [2] of less than 10 nM.
The like results for `CN1CCc2[nH]c3nc(Br)ccc3c2CC1` [Example 19, 2-bromo-7-methyl-5,6,7,8,9,10-hexahydropyrido[3′,2′:4,5]pyrrolo[2,3-d]azepine] were, in that order, 101 to 1000 nM and 10 to 100 nM.
For `CN1CCc2[nH]c3ncccc3c2CC1` [Example 20, 7-methyl-5,6,7,8,9,10-hexahydropyrido[3′,2′:4,5]pyrrolo[2,3-d]azepine] the same measures were 10 to 100 nM and 10 to 100 nM.
`CN1CCc2c(n(C)c3ncccc23)CC1` [Example 21, 7,10-dimethyl-5,6,7,8,9,10-hexahydropyrido[3′,2′:4,5]pyrrolo[2,3-d]azepine] showed a half-inhibitory concentration (IC50) in experiment [1] of 10 to 100 nM. Also, in experiment [2], the EC50 lay within 10 to 100 nM.
For `c1cnc2[nH]c3c(c2c1)CCN(C1COC1)CC3` [Example 22, 7-(oxetan-3-yl)-5,6,7,8,9,10-hexahydropyrido[3′,2′:4,5]pyrrolo[2,3-d]azepine], the half-inhibitory concentration (IC50) in experiment [1] is more than 10000 nM. Besides, the EC50 in experiment [2] lay within 1000 to 10000 nM.
In experiment [1], `Cn1c2c(c3cccnc31)CCN(C1COC1)CC2` [Example 23, 10-methyl-7-(oxetan-3-yl)-5,6,7,8,9,10-hexahydropyrido[3′,2′:4,5]pyrrolo[2,3-d]azepine] returned an IC50 of 1000 to 10000 nM. This compound yielded an EC50 in experiment [2] of 1000 to 10000 nM.
In experiment [1], `Brc1ccc2c3c([nH]c2n1)CCN(C1COC1)CC3` [Example 24, 2-bromo-7-(oxetan-3-yl)-5,6,7,8,9,10-hexahydropyrido[3′,2′:4,5]pyrrolo[2,3-d]azepine] gave an IC50 of 101 to 1000 nM. This compound registered an EC50 in experiment [2] of 101 to 1000 nM.
Compound `Cn1c2c(c3ccc(Br)nc31)CCNCC2` [Example 25, 2-bromo-10-methyl-5,6,7,8,9,10-hexahydropyrido[3′,2′:4,5]pyrrolo[2,3-d]azepine] showed an IC50 in experiment [1] of 10 to 100 nM. In experiment [2], this compound showed an EC50 of less than 10 nM.
With `CN1CCc2[nH]c3ncc(Cl)cc3c2CC1` [Example 26, 3-chloro-7-methyl-5,6,7,8,9,10-hexahydropyrido[3′,2′:4,5]pyrrolo[2,3-d]azepine], the IC50 in experiment [1] fell in the range of 10 to 100 nM. Besides, the EC50 in experiment [2] is 10 to 100 nM.
For `Clc1cnc2[nH]c3c(c2c1)CCN(C1COC1)CC3` [Example 27, 3-chloro-7-(oxetan-3-yl)-5,6,7,8,9,10-hexahydropyrido[3′,2′:4,5]pyrrolo[2,3-d]azepine], the IC50 in experiment [1] is 101 to 1000 nM. The EC50 in experiment [2] lay in the range of 101 to 1000 nM.
For the compound `Cn1c2c(c3cc(Cl)cnc31)CCNCC2` [Example 28, 3-chloro-10-methyl-5,6,7,8,9,10-hexahydropyrido[3′,2′:4,5]pyrrolo[2,3-d]azepine], in experiment [1], the half-inhibitory concentration (IC50) lay in the range of 10 to 100 nM. The same compound showed an EC50 in experiment [2] of 10 to 100 nM.
For `Cn1c2c(c3cc(Cl)cnc31)CCN(C1COC1)CC2` [Example 29, 3-chloro-10-methyl-7-(oxetan-3-yl)-5,6,7,8,9,10-hexahydropyrido[3′,2′:4,5]pyrrolo[2,3-d]azepine], the IC50 in experiment [1] is 1000 to 10000 nM. For the same compound, the EC50 in experiment [2] was in the range of 1000 to 10000 nM.
On to `CN1CCc2c(n(C)c3ncc(Cl)cc23)CC1` [Example 30, 3-chloro-7,10-dimethyl-5,6,7,8,9,10-hexahydropyrido[3′,2′:4,5]pyrrolo[2,3-d]azepine], for which the IC50 in experiment [1] was in the range of 10 to 100 nM. In addition, in experiment [2], the EC50 lay in the range of 10 to 100 nM.
